Reference: paper PMC5267515, “In Vitro and Clinical Evaluations of the Drug-Drug Interaction Potential of a Metabotropic Glutamate 2/3 Receptor Agonist Prodrug with Intestinal Peptide Transporter 1” (Drug Metabolism and Disposition, 2017)
Entries after “also recorded” stand apart in the source; their conditions may differ. Like-named read-outs stand apart in the source and are kept apart here. One block for each compound: values may come before it.

Assays:
[1] = human, in vivo
clinical = conditions: human, in vivo
MDCK-MDR1 cells = test system: MDCK-MDR1 cells; design: method as in data on file, Eli Lilly and Company; conditions: ref data on file, Eli Lilly and Company; cited from earlier work
[2] = Clinical drug interaction study (H8Y-MC-HBCF), plasma and urine pharmacokinetics in healthy subjects; conditions: for half-life / AUC(0-inf) / Cmax / Vd/F / Tmax / CL renal / AUC(0-t): human, oral; for half-life / AUC(0-inf) / Cmax / Vd/F / Tmax / AUC(0-t): plasma; for Vd/F: Vz/F; for Tmax: median (min–max); for CL renal: urine and plasma
PEPT1 [3] = target: T1, PEPT1 (Homo sapiens, UniProt P46059); assay: Proton- and time-dependent transport of prodrug and active moiety in PEPT1 transfected HeLa cells; assay type: in vitro ADME; design: expressed in transfected cells; host or cells: HeLa cells (ATCC), transiently transfected with Fugene 6, pcDNA3.1 vector; conditions: 30 μM, pH 6.0 or 7.5, PEPT1 vs empty vector transfected HeLa cells
T1 sequence (P46059 1-708): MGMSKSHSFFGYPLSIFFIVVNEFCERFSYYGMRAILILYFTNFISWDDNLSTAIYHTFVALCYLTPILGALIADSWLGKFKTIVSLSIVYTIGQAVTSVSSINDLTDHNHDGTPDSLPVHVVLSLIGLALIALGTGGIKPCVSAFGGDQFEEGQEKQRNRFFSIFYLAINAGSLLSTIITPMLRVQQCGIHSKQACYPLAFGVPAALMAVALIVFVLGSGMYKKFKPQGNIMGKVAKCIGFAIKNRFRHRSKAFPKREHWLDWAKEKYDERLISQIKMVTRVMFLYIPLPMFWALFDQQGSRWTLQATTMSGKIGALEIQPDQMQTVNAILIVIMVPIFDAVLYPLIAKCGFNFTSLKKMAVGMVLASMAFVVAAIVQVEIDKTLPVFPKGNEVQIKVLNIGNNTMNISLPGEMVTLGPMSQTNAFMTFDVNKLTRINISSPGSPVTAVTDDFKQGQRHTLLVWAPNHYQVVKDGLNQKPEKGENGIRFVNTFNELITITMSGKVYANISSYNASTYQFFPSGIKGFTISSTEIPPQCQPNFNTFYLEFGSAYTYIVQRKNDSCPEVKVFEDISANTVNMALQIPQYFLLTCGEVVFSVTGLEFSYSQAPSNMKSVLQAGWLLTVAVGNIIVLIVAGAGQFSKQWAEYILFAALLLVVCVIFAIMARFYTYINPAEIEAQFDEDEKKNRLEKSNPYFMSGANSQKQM
Protocol: The PEPT1 mediated [^14C]LY2140023 (30 μM) and [^14C]LY404039 (30 μM) uptake was measured in cells 24 hours post transfection. The time-dependent transport of LY2140023 and LY404039 was conducted using buffers prepared at either pH 6.0 or 7.5 as described above. The cells transfected with empty pcDNA3.1 vector were used to measure the passive diffusion of LY2140023 and LY404039. The cells were incubated for 1, 2.5, 5, 7.5, 10, and 15 minutes at room temperature and were washed, lysed, and contents quantified as described above.

[4] = Clinical study safety (adverse events) in healthy subjects; assay type: in vivo, human
Pept1 knockout mice = test system: Pept1 knockout mice; design: method as in data on file, Eli Lilly and Company; conditions: ref data on file, Eli Lilly and Company; cited from earlier work
PEPT1 [5] = target: T1, PEPT1; assay: Inhibition of PEPT1-mediated [14C]Gly-Sar uptake in transfected HeLa cells; assay type: in vitro ADME; design: expressed in transfected cells; host or cells: HeLa cells (ATCC), transiently transfected with Fugene 6, pcDNA3.1 vector; conditions: 25 μM [14C]Gly-Sar; LY2140023 5 to 1000 μM; 3 minutes; read-out: IC50 against Gly-Sar, mean of two separate experiments
Protocol: An inhibition assay was conducted using 25 μM [^14C]Gly-Sar (0.278 μCi/ml) as a probe substrate to assess if the uptake of [^14C]Gly-Sar was inhibited by prodrug (5 to 1000 μM). The cells were incubated for 3 minutes in uptake buffer containing 25 μM [^14C]Gly-Sar and different concentrations of LY2140023 at room temperature. The uptake was corrected for background determined by parallel experiment in cells transfected with pcDNA3.1 empty vector. Cell lysing and protein quantification were performed as described above.

PEPT1 [6] = target: T1, PEPT1; assay: Potential for clinical DDI: estimated GI concentration (I2) versus in vitro IC50; design: expressed in transfected cells; host or cells: HeLa cells (ATCC), transiently transfected with Fugene 6, pcDNA3.1 vector; conditions: dose divided by 250 ml (glass of water)
Protocol: These concentrations (I2) were obtained by dividing the recommended clinical dose by a volume of 250 ml (volume of glass of water) (Table 3).
Subsequently, to normalize the inhibitory potential to the clinical dose, the in vitro IC50 values were […] (the volume of a glass of water).

PEPT1 [7] = target: PEPT1; design: method as in Ganapathy et al. (1998); conditions: ref Ganapathy et al. (1998); read-out: Ki value (printed in column IC50 against Gly-Sar); cited from earlier work
PEPT1 [8] = target: T1, PEPT1; assay: Inhibition of PEPT1-mediated [14C]LY2140023 uptake in transfected HeLa cells; conditions: 10 μM [14C]LY2140023
[9] = LY2140023 80 mg + valacyclovir 1000 mg coadministered, geometric mean (CV%)
[10] = LY2140023 + Valacyclovir vs LY2140023 Alone
[11] = 80 mg, AUC(0-∞) LS Geometric Mean, LY2140023 Alone (Reference)
[12] = 80 mg, AUC(0-∞), single 80-mg dose of LY2140023 alone, geometric mean (CV%)
[13] = 80 mg, Cmax LS Geometric Mean, LY2140023 Alone (Reference)
[14] = 80 mg, Cmax, single 80-mg dose of LY2140023 alone, geometric mean (CV%)
[15] = 80 mg, single 80-mg dose of LY2140023 alone
[16] = AUC(0-∞) LS Geometric Mean, LY2140023 + Valacyclovir (Test)
[17] = AUC(0-∞), LY2140023 80 mg + valacyclovir 1000 mg coadministered, geometric mean (CV%)
[18] = Cmax LS Geometric Mean, LY2140023 + Valacyclovir (Test)
[19] = Cmax, LY2140023 80 mg + valacyclovir 1000 mg coadministered, geometric mean (CV%)
[20] = LY2140023 80 mg + valacyclovir 1000 mg coadministered
[21] = single 80-mg dose of LY2140023 alone, geometric mean (CV%)

- fe [1]: 0.460 (32.0)
- AUC(0-inf) (clinical; AUC(0-∞)): 17500 ng·h/mL
- AUC(0-inf) (clinical; AUC(0-∞) LS Geometric Mean): 17500 ng·h/mL
- Cmax (clinical; Cmax): 4400 ng/mL
- Cmax (clinical; Cmax LS Geometric Mean): 4400 ng/mL
- Tmax (clinical; tmax): 2.5 h
Structure (SMILES): Nc1nc2c(ncn2COCCO)c(=O)[nH]1 [Acyclovir]

- CL/F [2, 9]: 20.5 (24) L/hour
- AUC(0-∞) Ratio Test/Reference [2, 10]: 0.94
- Cmax Ratio Test/Reference [2, 10]: 0.92
- active moiety present at the first sampling time ([2]; after administration of the prodrug): 18 of 21 subjects
- half-life ([2]; 80 mg): 3.05 h
- AUC(0-inf) [2, 11]: 2670 ng·h/mL
- AUC(0-inf) [2, 12]: 2600 ng·h/mL
- Cmax [2, 13]: 484 ng/mL
- Cmax [2, 14]: 477 ng/mL
- Vd/F ([2]; 80 mg, single 80-mg dose of LY2140023 alone, geometric mean (CV%)): 86.5 L
- Tmax [2, 15]: 4 h
- AUC(0-inf) [2, 16]: 2500 ng·h/mL
- AUC(0-inf) [2, 17]: 2490 ng·h/mL
- Cmax [2, 18]: 447 ng/mL
- Cmax [2, 19]: 444 ng/mL
- Vd/F [2, 9]: 92.2 L
- Tmax [2, 20]: 4 h
- CL renal ([2]; 80 mg): 213 mL/min
- CL/F [2, 21]: 19.7 (16) L/hour
Structure (SMILES): N[C@@]1(C(=O)O)CS(=O)(=O)[C@H]2[C@H](C(=O)O)[C@H]21 [LY404039]
- passive permeability (MDCK-MDR1 cells): approximately 1 × 10^−6 cm/s
- PEPT1 substrate status (PEPT1 [3]): is not a PEPT1 substrate; also recorded: not transported by PEPT1

- Vd/F (clinical; Vz/F): 166 L
- CL/F [2, 9]: 65.9 (31) L/hour
- half-life ([2]; 80 mg): 1.92 h
- AUC(0-inf) [2, 11]: 1350 ng·h/mL
- AUC(0-inf) [2, 12]: 1330 ng·h/mL
- Cmax [2, 13]: 310 ng/mL
- Cmax [2, 14]: 307 ng/mL
- Tmax [2, 15]: 3 h
- AUC(0-inf) [2, 16]: 1220 ng·h/mL
- AUC(0-inf) [2, 17]: 1210 ng·h/mL
- Cmax [2, 18]: 275 ng/mL
- Cmax [2, 19]: 272 ng/mL
- Tmax [2, 20]: 3 h
- CL/F [2, 21]: 60.2 (27) L/hour
- IC50 (PEPT1 [5]): 18 µM
- PEPT1 substrate status (PEPT1 [3]; listed as LY2140023 monohydrate): is a substrate of PEPT1
- Estimated Intestinal Concentration (PEPT1 [6]): 0.873 mM
Structure (SMILES): CSCC[C@H](N)C(=O)N[C@@]1(C(=O)O)CS(=O)(=O)[C@H]2[C@H](C(=O)O)[C@H]21 [LY2140023, Pomaglumetad methionil]
- most common AEs ([4]; after prodrug alone (80 mg)): nausea, dizziness, somnolence, and headache
- AUC0–∞ in Pept1 knockout mice relative to wildtype mice (Pept1 knockout mice): 10%
- Cmax in Pept1 knockout mice relative to wildtype mice (Pept1 knockout mice): 10%
- passive permeability (MDCK-MDR1 cells): approximately 1 × 10^−6 cm/s
- PEPT1 substrate status (PEPT1 [3]): a PEPT1 substrate; also recorded: PEPT1-mediated, proton-dependent process

- IC50 (PEPT1 [8]; IC50 against LY2140023, first of two separate experiments): 410 ± 50 µM
- IC50 (PEPT1 [8]; IC50 against LY2140023, second of two separate experiments): 500 ± 110 µM
- IC50 (PEPT1 [8]; Mean IC50 against LY2140023, mean of two separate experiments): 460 µM
- fe (fraction of the dose excreted in urine) [2, 9]: 0.00776 (25.4)
- AUC(0-t) ([2]; 1000 mg, AUC(0-3) LS Geometric Mean, Valacyclovir Alone (Reference)): 309 ng·h/mL
- AUC(0-t) ([2]; 1000 mg, AUC(0-3), single 1000-mg dose of valacyclovir alone, geometric mean (CV%), n = 22): 311 ng·h/mL
- Cmax ([2]; 1000 mg, Cmax LS Geometric Mean, Valacyclovir Alone (Reference)): 245 ng/mL
- Cmax ([2]; 1000 mg, Cmax, single 1000-mg dose of valacyclovir alone, geometric mean (CV%)): 245 ng/mL
- Tmax ([2]; 1000 mg, single 1000-mg dose of valacyclovir alone): 2 h
- AUC(0-t) ([2]; AUC(0-3) LS Geometric Mean, Valacyclovir + LY2140023 (Test)): 278 ng·h/mL
- AUC(0-t) ([2]; AUC(0-3), LY2140023 80 mg + valacyclovir 1000 mg coadministered, geometric mean (CV%)): 270 ng·h/mL
- Cmax [2, 18]: 258 ng/mL
- Cmax [2, 19]: 255 ng/mL
- Tmax [2, 20]: 2 h
- CL renal ([2]; 1000 mg): 262 mL/min
- fe ([2]; single 1000-mg dose of valacyclovir alone, geometric mean (CV%)): 0.00703 (64.7)
Structure (SMILES): CC(C)[C@H](N)C(=O)OCCOCn1cnc2c(=O)[nH]c(N)nc21 [Valacyclovir]
- adverse events ([4]; after 1000 mg of valacyclovir alone): mild AE of urticaria; also recorded: one severe AE of headache
- Ki (PEPT1 [7]): 740 µM
